Measured values published in patent US5854280A, “Antifungal sordaridin derivatives” (Glaxo Wellcome S.A., priority 1994, dated 1998).
≈ marks a conversion by molar mass, not a printed value.

Columns and labels:
Assay in all cases: in vitro antifungal MIC, two-fold serial dilution
C. glabrata 2375E = type: cell-based, Candida glabrata
Method: (§1) The in vitro evaluation of the anti-fungal activity of compounds of the invention was performed on liquid or solid medium by the anti-fungal two-fold serial dilution technique of determining the minimum inhibitory concentration (MIC) of anti-fungal agent that inhibited development of growth after 24 to 48 hours of incubation at 37° C. In practice, a series of agar plates or broth microdilution panels containing two-fold dilutions of anti-fungal agent tested were inoculated with a standard culture of a clinically relevant pathogen, for example, Candida albicans. The agar plates or broth microdulution panels were then examined for the presence or absence of growth of the fungus and the appropriate MIC values were noted.
(§2) Compounds of formula (I) have been tested for anti fungal activity in a standard in vitro screen and the minimum inhibiting concentration (MIC; μg/ml) determined for each compound against a variety of clinically relevant pathogens.

C. glabrata 2376E = type: cell-based, Candida glabrata
Method: as §1, §2

[1] = tested on: C. psuedotropicalis 2371E; type: cell-based, Candida pseudotropicalis
Method: as §1, §2

C. tropicalis 2808E = type: cell-based, Candida tropicalis
Method: as §1, §2

C. neoformans 2867E = type: cell-based, Cryptococcus neoformans
Method: as §1, §2

C. albicans 4711 = type: cell-based, Candida albicans
Method: as §1, §2

C. aibicans 2402E = type: cell-based, Candida albicans
Method: as §1, §2

C. albicans 2005E = type: cell-based, Candida albicans
Method: as §1, §2

C. albicans 1208E = type: cell-based, Candida albicans
Method: as §1, §2

Row | Compound | MIC (minimum inhibiting concentration) (C. glabrata 2375E) | MIC (minimum inhibiting concentration) (C. glabrata 2376E) | MIC (minimum inhibiting concentration) [1] | MIC (minimum inhibiting concentration) (C. tropicalis 2808E) | MIC (minimum inhibiting concentration) (C. neoformans 2867E) | MIC (minimum inhibiting concentration) (C. albicans 4711) | MIC (minimum inhibiting concentration) (C. aibicans 2402E) | MIC (minimum inhibiting concentration) (C. albicans 2005E) | MIC (minimum inhibiting concentration) (C. albicans 1208E)
1 | CC(C)C1=CC2CC3(C=O)C4CCC(C)C4CC2(COC2CC4C(=O)COC4C(C)O2)C13C(=O)O [Example 37, [1R-(1α,3aβ,4β,4aβ,7β,7aα,8aβ)]8a-[[1S,7R,9R]-2,8-Dioxa-9-methyl-4-oxo-cis-bicyclo[3.4.0]-non-7-yl-oxy-methyl]-4-formyl4,4a,5,6,7,7a,8,8a-octahydro-7-methyl-3-(1-methyl-ethyl)-1,4-methano-s-indacene-3a(1H)-carboxylic acid] | 4.00 µg/mL (≈ 8.22 µM) | 6.00 µg/mL (≈ 12.3 µM) | 0.060 µg/mL (≈ 0.123 µM) | 0.500 µg/mL (≈ 1.03 µM) | ≤ 0.250 µg/mL | 0.030 µg/mL (≈ 0.0617 µM) | 0.060 µg/mL (≈ 0.123 µM) | 0.001 µg/mL (≈ 0.00206 µM) | 0.060 µg/mL (≈ 0.123 µM)
2 | C=C1COC2C(C)OC(OCC34CC5C(C)CCC5C5(C=O)CC3C=C(C(C)C)C54C(=O)[O-])CC12.[Na+] [Example 34, [1R-(1α,3aβ,4β,4aβ,7β,7aα,8aβ)]8a-[[1S,7R,9R]-2,8-Dioxa-9-methyl-4-methylene-cis-bicyclo[3.4.0]-non-7-yl-oxy-methyl]-4-formyl-4,4a, 5,6,7,7a,8,8a-octahydro-7-methyl-3-(1-methylethyl)-1,4-methano-s-indacene-3a(1H)-carboxylic acid, sodium salt] | 1.000 µg/mL | 1.000 µg/mL | ≤ 0.001 µg/mL | 0.150 µg/mL | ≤ 0.250 µg/mL | 0.001 µg/mL | 0.001 µg/mL | 0.001 µg/mL | 0.001 µg/mL
3 | CC(C)C1=CC2CC3(C=O)C4CCC(C)C4CC2(COC2OC(C)C(OCc4ccccc4)C4OC24)C13C(=O)O [Example 54, [1R-(1α,3aβ,4β,4aβ,7β,7aα,8aβ)]8a-[(2,3-Anhydro-4-O-benzyl-6-deoxy-β-D-mannopyranosyloxy)methyl]-4-formyl-4,4a,5,6,7,7a,8,8a-octahydro-7-methyl-3-(1-methylethyl)-1,4-methano-s-indacene-3a(1H)-carboxylic acid] | 8.00 µg/mL (≈ 14.5 µM) | 8.00 µg/mL (≈ 14.5 µM) | 0.01 µg/mL (≈ 0.0182 µM) | ≤ 0.001 µg/mL | 2.00 µg/mL (≈ 3.63 µM) | ≤ 0.001 µg/mL | ≤ 0.001 µg/mL | ≤ 0.001 µg/mL | ≤ 0.001 µg/mL

Further lines, results first:

Row | MIC (minimum inhibiting concentration) (C. glabrata 2375E) | MIC (minimum inhibiting concentration) (C. glabrata 2376E) | MIC (minimum inhibiting concentration) [1] | MIC (minimum inhibiting concentration) (C. tropicalis 2808E) | MIC (minimum inhibiting concentration) (C. neoformans 2867E) | MIC (minimum inhibiting concentration) (C. albicans 4711) | MIC (minimum inhibiting concentration) (C. aibicans 2402E) | MIC (minimum inhibiting concentration) (C. albicans 2005E) | MIC (minimum inhibiting concentration) (C. albicans 1208E) | Compound
4 | 31.00 µg/mL (≈ 59.8 µM) | 31.00 µg/mL (≈ 59.8 µM) | 0.060 µg/mL (≈ 0.116 µM) | 1.000 µg/mL (≈ 1.93 µM) | > 125 µg/mL | 0.280 µg/mL (≈ 0.54 µM) | 0.500 µg/mL (≈ 0.964 µM) | 0.120 µg/mL (≈ 0.231 µM) | 0.500 µg/mL (≈ 0.964 µM) | CC(C)C1=CC2CC3(C=O)C4CCC(C)C4CC2(COC2OC(C)C4OC(C)(C)OC4C2O)C13C(=O)O [Example 1, [1R-(1α,3aβ,4β,4aβ,7β,7aα,8aβ)]8a-[(6-Deoxy-3,4-O-isopropylidene-β-D-altropyranosyloxy)methyl]-4-formyl-4,4a,5,6,7,7a,8,8a-octahydro-7-methyl-3-(1-methylethyl)-1,4-methano-s-indacene-3a(1H)-carboxylic acid]
5 | 8.00 µg/mL (≈ 16.4 µM) | 8.00 µg/mL (≈ 16.4 µM) | < 0.001 µg/mL | 0.008 µg/mL (≈ 0.0164 µM) | 1.00 µg/mL (≈ 2.05 µM) | 0.001 µg/mL (≈ 0.00205 µM) | 0.001 µg/mL (≈ 0.00205 µM) | 0.001 µg/mL (≈ 0.00205 µM) | 0.001 µg/mL (≈ 0.00205 µM) | CC(C)C1=CC2CC3(C=O)C4CCC(C)C4CC2(COC2CC4OCC(C)C4C(C)O2)C13C(=O)O [Example 16, [1R-(1α,3aβ,4β,4aβ,7β,7aα,8aβ)]8a-[[1S,4S,6R,8R]-2,7-Dioxa-4,6-dimethyl-cis-bicyclo[3.4.0]-non-8-yl-oxy-methyl]-4-formyl-4,4a,5,6,7,7a,8,8a-octahydro-7-methyl-3-(1-methylethyl)-1,4-methano-s-indacene-3a(1H)-carboxylic acid]
